Test results from US12721832B2, “Anti-senescence plant polyphenol drug downregulating senescence-related secretory phenotype and use thereof” (BYHEALTH CO., LTD., priority 2021, dated 2026).

Tests used:
[1] = system: HUVECs; details: cited from earlier work
[2] = system: senescent human preadipocytes; details: cited from earlier work
[3] = system: IMR90 fetal lung fibroblast-like cell lines; details: culture-adapted; cited from earlier work
[4] = system: senescent primary human lung fibroblasts; details: cited from earlier work
[5] = system: PSC27 cells; test: Bleomycin-induced senescence of PSC27 stromal cells (SA-β-Gal, BrdU, DDR foci staining); format: cell-based, human
Description: The primary normal human prostate stromal cell line PSC27 (obtained from Fred Hutchinson Cancer Research Center, USA) was cultured in an incubator at 37° C. and 5% CO2, and proliferated and passaged in PSCC complete culture medium.
To cause cell damage, 50 μg/mL bleomycin (BLEO) was added to the culture medium when PSC27 cells grew to 80% (abbreviated as […]). After 12 hours of drug treatment, the cells were simply washed 3 times with PBS, left in the culture medium for 7-10 days, and then the subsequent experiments were performed.
For immunofluorescent staining, target cells were preseeded on coverslips for at least 24 h after culture in dishes. After a brief wash, the cells were fixed with 4% paraformaldehyde in PBS for 8 min and blocked with 5% normal goat serum (NGS, Thermo Fisher) for 30 min. Mouse monoclonal antibody-anti-phospho-Histone H2A.X (Ser139) (clone JBW301, Millipore) and mouse monoclonal antibody-anti-BrdU (Cat# 347580, BD Biosciences), and secondary antibody Alexa Fluor® 488 (or 594)-Eurolink's F(ab')2 were sequentially added to the slides coated with the fixed cells. Nuclei were counterstained with 2 μg/m DAPI. The most representative image was selected from the three observation fields for data analysis and result display. FV1000 laser scanning confocal microscope (Olympus) was used to acquire confocal fluorescence images of cells.
Senescence-associated (3-galactosidase (SA-β-Gal) staining was performed following a previously reported procedure (Debacq-Chainiaux et al., 2009). Briefly, cells in culture dishes were washed with PBS and fixed at room temperature. Cells were fixed in 2% formaldehyde and 0.2% glutaraldehyde for 3 minutes. SA-β-Gal was used for staining with freshly prepared staining solution overnight at 37° C. Images were taken on the next day and the percentage of positive cells per unit area was calculated.

[6] = system: PC3/PSC27 xenograft tumors; test: PC3/PSC27 xenograft tumor terminal volume in NOD/SCID mice; format: in vivo; details: for tumor volume, drug administered together with PCC1: chemotherapeutic drug combined with PCC1, end of 8th week; for tumor volume, drug used alone: chemotherapeutic drug alone
Text: Every two weeks was a dosing cycle, and MIT (mitoxantrone) was intraperitoneally administered to the mice on the first day of the 3rd/5th/7th weeks. From the first day of the 5th week, the mice were intraperitoneally administrated with PCC1, once a week. After the 8-week course of treatment, the mice were dissected for pathological identification and expression analysis.
Chemotherapeutic drug MIT alone or together with anti-senescence drug PCC1 was used to administer mice, and after the 8th week, the tumor size of each group was compared and analyzed.
All experimental mouse experiments were carried out in strict accordance with the relevant regulations of the Institutional Animal Care and Use Committee (IACUC), Shanghai Institutes for Biological Sciences, Chinese Academy of Sciences. Immunodeficient mice (NOD-SCID mice, ICR) (body weight about 25 g) aged 6-8 weeks were used for animal experiments related to the present patent. Stromal cells PSC27 and epithelial cells PC3 were mixed at a predetermined ratio of 1:4, and each graft contained 1.25×10^6 cells for tissue remodeling. The xenograft tumors were implanted into mice by subcutaneous transplantation, and the animals were euthanized 8 weeks after the end of the transplantation surgery. Tumor volume was calculated according to the following formula: V=(π/6)×[…] (V, volume; l, length; w, width).
(§1) In a preclinical treatment trial, subcutaneously transplanted mice were fed with a standard experimental diet, after 2 weeks chemotherapy drugs mitoxantrone (MIT, dose: 0.2 mg/kg) and/or procyanidin C1 (PCC1) (500 μl, dose: 10 mg/kg) via intraperitoneal administration. The time points were: the former was administrated on the first day of the 3rd, 5th and 7th weeks, and the latter was administrated on the first day of the 5th and 7th weeks. A total of 3 cycles of MIT administration were carried out throughout the course of treatment, and each cycle lasted for 2 weeks. After the course of treatment, mouse tumors were harvested for volume measurement and histological analysis. Each mouse cumulatively received 0.6 mg/kg body weight of MIT and […] body weight of PCC1. In order to cause systemic expression of SASP factor induced by chemotherapy, MIT was administered to mice through […] according to the above steps and sequence, but the dose was reduced to 0.1 mg/kg body weight/each time (the cumulative dose of MIT received in the whole course of treatment was 0.3 mg/kg body weight) to reduce drug-related toxicity. The chemotherapy experiment ended at the end of the 8th week, and the mice were dissected immediately after sacrifice, and the xenograft tumors were collected and used for pathological system analysis.

[7] = system: senescent PSC27 cells; test: Caspase 3/7 activity / drug-induced apoptosis in senescent cells; format: cell-based, human; details: QVD-OPh, 50 μM PCC1
Description: PSC27 cells gradually entered the senescent stage after being treated with BLEO for 12 hours under culture conditions. 50 μM PCC1 was added to the medium of senescent cells starting from day 7, NucLight Rapid Red reagent was used to label the cells, and caspase 3/7 reagent (IncuCyte) was used for apoptosis detection. Caspase 3/7 activity was detected every 4 hours (n=3).
Statistical differences are obtained by two-way ANOVA (Turkey' test).
PSC27 cells were plated in a 96-well dish, and the cells were induced to senescence under the treatment of 50 μg/mL BLEO. PCC1 and ABT263 were added at concentrations of 50 μM and 1.0 μM, respectively. Cell culture medium was supplemented with Incucyte Nuclight fast Red Reagent (Essen Bioscience) and Incucyte C-3/7 Apoptosis Reagent (Essen Bioscience). Representative field of view was selected to take pictures.

[8] = system: senescent cells in tumor tissue; test: SA-β-Gal staining of tumor tissue in PC3/PSC27 tumor-bearing mice; format: in vivo; details: MIT alone
Description: Representative pictures after SA-β-Gal staining. Scale bar, 100 μm.
A P>0.05; **, P<0.01; ***, P<0.001.
as §1, with “The chemotherapy experiment ended at the end of the 8th week, and the mice were dissected immediately after sacrifice, and the xenograft tumors were collected and used for pathological system analysis.” left out

[9] = system: SASP factors; test: LCM and qRT-PCR of SASP factors in mouse lesions; format: in vivo, mice; details: MIT, mainly in stromal cells
Description: The stromal cells and cancer cells were specifically separated by LCM technology, total RNA was prepared and used for SASP expression detection. A P>0.05; *, P<0.05; **, P<0.01; ***, P<0.001.
as §1, with “The chemotherapy experiment ended at the end of the 8th week, and the mice were dissected immediately after sacrifice, and the xenograft tumors were collected and used for pathological system analysis.” left out

[10] = system: cancer cells in the lesion; test: DNA damage and apoptosis in tumor lesions (LCM, caspase 3 cleavage IHC); format: in vivo, mice; details: single agent vs placebo, 7 days after first PCC1 administration
Text: The signals of Caspase 3 cleaved […] in the lesion of each group of mice were in sharp contrast. Scale bar, 200 μm.
To investigate mechanisms directly supporting this senescence-associated pattern with expression and reversal of SASP in MIT-administered mice, we dissected tumors in animals treated with both drugs 7 days after the first PCC1 administration, and the time point of 7 days after administration was selected mainly because drug-resistant clones had not yet formed in cancer cells in the lesion at this time. […] As supporting evidence, when PCC1 was applied during treatment, caspase 3 cleavage activity was increased, which was a typical hallmark of apoptosis (FIG. 29).

CC1(C)CCC(c2ccc(Cl)cc2)=C(CN2CCN(c3ccc(C(=O)NS(=O)(=O)c4ccc(N[C@H](CCN5CCOCC5)CSc5ccccc5)c(S(=O)(=O)C(F)(F)F)c4)cc3)CC2)C1 [Navitoclax]
ability to target senescent cells [1]: able to target | ability to target senescent cells [2]: not | ability to target senescent cells [3]: can target and kill senescent cells | ability to target senescent cells [4]: less effective

bleomycin
positive rate of SA-β-Gal staining ([5]; PSC27, 50 μg/mL BLEO 12 h, 7-10 days later, vs CTRL): significant increase | BrdU incorporation rate ([5]; PSC27, BLEO treated vs CTRL): greatly reduced | DNA damage repair foci (DDR foci) ([5]; PSC27, BLEO treated vs CTRL): significantly increased

COc1cccc2c1C(=O)c1c(O)c3c(c(O)c1C2=O)C[C@@](O)(C(=O)CO)C[C@@H]3O[C@H]1C[C@H](N)[C@H](O)[C@H](C)O1 [DOX, doxorubicin]
tumor volume, drug administered together with PCC1 [6]: could roughly repeat the significant effect

CC[C@]1(O)C[C@H]2CN(CCc3c([nH]c4ccccc34)[C@@](C(=O)OC)(c3cc4c(cc3OC)N(C=O)[C@H]3[C@@](O)(C(=O)OC)[C@H](OC(C)=O)[C@]5(CC)C=CCN6CC[C@]43[C@@H]65)C2)C1 [VIN, vincristine]
tumor volume, drug used alone ([6]; end of 8th week): could reduce the tumor volume | tumor volume, drug administered together with PCC1 [6]: no further tumor shrinkage

CC(=O)O[C@@]12CO[C@@H]1C[C@H](O)[C@@]1(C)C(=O)[C@H](O)C3=C(C)[C@@H](OC(=O)[C@H](O)[C@@H](NC(=O)OC(C)(C)C)c4ccccc4)C[C@@](O)([C@@H](OC(=O)c4ccccc4)[C@H]21)C3(C)C [DOC, docetaxel]
tumor volume, drug used alone ([6]; end of 8th week): could reduce the tumor volume | tumor volume, drug administered together with PCC1 [6]: no further tumor shrinkage

CC(C)[C@H](NC(=O)c1ccc2ccccc2n1)C(=O)N[C@@H](CC(=O)O)C(=O)COc1c(F)cccc1F [QVD, reference compound]
effect of pan-caspase inhibitor on senolytic activity of PCC1 [7]: could prevent the killing of senescent cells by PCC1

O=C1c2c(O)ccc(O)c2C(=O)c2c(NCCNCCO)ccc(NCCNCCO)c21 [MIT, mitoxantrone, reference compound]
reduction in tumor size compared to placebo ([6]; single agent, i.p., end of 8th week): 44.0% | senescent cells in tumor tissue [8]: induced the appearance of a large number of senescent cells | expression of SASP factors (IL6, CXCL8, SPINK1, WNT16B, GM-CSF, MMP3, IL1α) and p16INK4A in lesions [9]: significantly elevated | degree of DNA damage and apoptosis [10]: significant increase
